Data as given in patent US7968577B2 (Bristol-Myers Squibb Company, priority 2006, dated 2011).

Target: T1, human full-length glucocorticoid receptor (Homo sapiens, UniProt P04150)
T1 construct: recombinantly expressed human full-length glucocorticoid receptor; purchased PanVera Co., Madison, Wis; P2816
T1 sequence (P04150 1-777): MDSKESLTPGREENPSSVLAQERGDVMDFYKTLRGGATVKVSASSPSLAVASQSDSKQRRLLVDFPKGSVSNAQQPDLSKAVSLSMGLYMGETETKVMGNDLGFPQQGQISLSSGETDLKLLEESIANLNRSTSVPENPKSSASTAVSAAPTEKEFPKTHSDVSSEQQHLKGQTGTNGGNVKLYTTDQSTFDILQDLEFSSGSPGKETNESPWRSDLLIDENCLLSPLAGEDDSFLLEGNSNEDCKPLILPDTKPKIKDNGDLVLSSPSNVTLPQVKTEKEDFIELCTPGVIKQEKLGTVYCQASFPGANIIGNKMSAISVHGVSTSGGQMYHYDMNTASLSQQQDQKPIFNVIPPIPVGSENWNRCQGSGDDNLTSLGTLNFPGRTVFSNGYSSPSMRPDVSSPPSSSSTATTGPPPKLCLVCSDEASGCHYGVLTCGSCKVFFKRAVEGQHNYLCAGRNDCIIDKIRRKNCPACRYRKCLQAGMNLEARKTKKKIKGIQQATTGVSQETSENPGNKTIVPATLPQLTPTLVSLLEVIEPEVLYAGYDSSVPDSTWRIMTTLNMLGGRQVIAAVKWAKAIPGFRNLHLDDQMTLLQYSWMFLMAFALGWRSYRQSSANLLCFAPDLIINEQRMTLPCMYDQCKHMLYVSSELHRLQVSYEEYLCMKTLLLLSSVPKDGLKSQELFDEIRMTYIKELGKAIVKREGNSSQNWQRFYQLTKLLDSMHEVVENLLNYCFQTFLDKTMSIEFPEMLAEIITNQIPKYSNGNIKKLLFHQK
Assay: Glucocorticoid Receptor Binding Assay (II), fluorescence polarization competitor kit (Fluormone GS1)
Conditions: GR Binding Assay (II)
Protocol: Glucocorticoid Receptor Binding Assay (II)^b
In order to measure the binding of compounds on the glucocorticoid receptor a commercially available kit was used (Glucocorticoid receptor competitor assay kit, PanVera Co., Madison, Wis., P2816). Briefly, a cell lysate containing recombinantly expressed human full-length glucocorticoid receptor was mixed with a fluorescently labeled glucocorticoid (1 nM Fluormone GS1) in the presence or absence of test compound. After one hour at room temperature, the fluorescence polarization (FP) of the samples were measured.

| SMILES | Ki |
| --- | --- |
| CC(C)(C(=O)Nc1nncs1)C(c1ccccc1)c1ccc(N)cc1 (stereo not shown) [Example 252, 3-(4-aminophenyl)-2,2-dimethyl-3-phenyl-N-1,3,4-thiadiazol-2-ylpropanamide] | 60.5 nM |
| CCOC(=O)c1csc(NC(=O)C(C)(C)[C@@H](c2ccccc2)c2ccc(OC)cc2)n1 [Example 263, ethyl 2-((2,2-dimethyl-3-(4-(methyloxy)phenyl)-3-phenylpropanoyl)amino)-1,3-thiazole-4-carboxylate] | 130 nM |
| COc1ccc([C@H](c2ccccc2)C(C)(C)C(=O)Nc2nc(C)cs2)cc1 [Example 265, 2,2-dimethyl-3-(4-(methyloxy)phenyl)-N-(4-methyl-1,3-thiazol-2-yl)-3-phenylpropanamide] | 193 nM |
| COc1ccc([C@@H](c2ccccc2)C(C)(C)C(=O)Nc2nc(C)cs2)cc1 [Example 266, 2,2-dimethyl-3-(4-(methyloxy)phenyl)-N-(4-methyl-1,3-thiazol-2-yl)-3-phenylpropanamide] | 315 nM |
| COc1ccc([C@H](c2ccccc2)C(C)(C)C(=O)Nc2ncc(C)s2)cc1 [Example 267, (3S)-2,2-dimethyl-3-(4-(methyloxy)phenyl)-N-(5-methyl-1,3-thiazol-2-yl)-3-phenylpropanamide] | 111 nM |
| COc1ccc([C@@H](c2ccccc2)C(C)(C)C(=O)Nc2ncc(C)s2)cc1 [Example 268, (3R)-2,2-dimethyl-3-(4-(methyloxy)phenyl)-N-(5-mehtyl-1,3-thiazol-2-yl)-3-phenylpropanamide] | 302 nM |
| COc1ccc([C@H](c2ccccc2)C(C)(C)C(=O)NC2CC2)cc1 [Example 269, (3S)-N-cyclopropyl-2,2-dimethyl-3-(4-(methyloxy)phenyl)-3-phenylpropanamide] | 1300 nM |
| COc1ccc([C@@H](c2ccccc2)C(C)(C)C(=O)NC2CC2)cc1 [Example 270, (3R)-N-cyclopropyl-2,2-dimethyl-3-(4-(methyloxy)phenyl)-3-phenylpropanamide] | 2000 nM |
| COc1ccc([C@H](c2ccccc2)C(C)(C)C(=O)NC2CCC2)cc1 [Example 271, (3S)-N-cyclobutyl-2,2-dimethyl-3-(4-(methyloxy)phenyl)-3-phenylpropanamide] | 770 nM |
| COc1ccc([C@@H](c2ccccc2)C(C)(C)C(=O)NC2CCC2)cc1 [Example 272, (3R)-N-cyclobutyl-2,2-dimethyl-3-(4-(methyloxy)phenyl)-3-phenylpropanamide] | 1160 nM |
| COc1ccc([C@H](c2ccccc2)C(C)(C)C(=O)NC2CCCC2)cc1 [Example 273, (3S)-N-cyclopentyl-2,2-dimethyl-3-(4-(methyloxy)phenyl)-3-phenylpropanamide] | 987 nM |
| COc1ccc([C@@H](c2ccccc2)C(C)(C)C(=O)NC2CCCC2)cc1 [Example 274, (3R)-N-cyclopentyl-2,2-dimethyl-3-(4-(methyloxy)phenyl)-3-phenylpropanamide] | 1530 nM |
| COc1ccc([C@H](c2ccccc2)C(C)(C)C(=O)Nc2nncs2)cc1 [Example 275] | 51.9 nM |
| COc1ccc([C@H](c2ccccc2)C(C)(C)C(=O)Nc2ccccn2)cc1 [Example 277, (3S)-2,2-dimethyl-3-(4-(methyloxy)phenyl)-3-phenyl-N-2-pyridinylpropanamide] | 2670 nM |
| COc1ccc([C@H](c2ccccc2)C(C)(C)C(=O)Nc2ccncn2)cc1 [Example 278, (3S)-2,2-dimethyl-3-(4-(methyloxy)phenyl)-3-phenyl-N-4-pyrimidinylpropanamide] | 1850 nM |
| COc1ccc(C(c2ccccc2)C(C)(C)C(=O)Nc2nccs2)c(F)c1 (stereo not shown) [Example 279, 3-(2-fluoro-4-(methyloxy)phenyl)-2,2-dimethyl-3-phenyl-N-1,3-thiazol-2-ylpropanamide] | 74.7 nM |

| SMILES | Ki |
| --- | --- |
| COc1ccc(C(c2ccccc2)C(C)(C)C(=O)Nc2nncs2)c(F)c1 (stereo not shown) [Example 280, 3-(2-fluoro-4-(methyloxy)phenyl)-2,2-dimethyl-3-phenyl-N-1,3,4-thiadiazol-2-ylpropanamide] | 100 nM |
| COc1ccc(C(c2ccccc2)C(C)(C)C(=O)Nc2nccs2)cc1F (stereo not shown) [Example 281, 3-(3-fluoro-4-(methyloxy)phenyl)-2,2-dimethyl-3-phenyl-N-1,3-thiazol-2-ylpropanamide] | 15.5 nM |
| COc1ccc(C(c2ccccc2)C(C)(C)C(=O)Nc2nccs2)cc1F (stereo not shown) [Example 282, 3-(3-fluoro-4-(methyloxy)phenyl)-2,2-dimethyl-3-phenyl-N-1,3-thiazol-2-ylpropanamide] | 29.5 nM |
| COc1ccc(C(c2ccccc2)C(C)(C)C(=O)Nc2nccs2)cc1F (stereo not shown) [Example 283, 3-(3-fluoro-4-(methyloxy)phenyl)-2,2-dimethyl-3-phenyl-N-1,3-thiazol-2-ylpropanamide] | 9.2 nM |
| COc1ccc(C(c2ccccc2)C(C)(C)C(=O)Nc2nncs2)cc1F (stereo not shown) [Example 284, 3-(3-fluoro-4-(methyloxy)phenyl)-2,2-dimethyl-3-phenyl-N-1,3,4-thiadiazol-2-ylpropanamide] | 26.9 nM |
| COc1ccc(C(c2ccccc2)C(C)(C)C(=O)Nc2nncs2)cc1F (stereo not shown) [Example 285, 3-(3-fluoro-4-(methyloxy)phenyl)-2,2-dimethyl-3-phenyl-N-1,3,4-thiadiazol-2-ylpropanamide] | 13.8 nM |
| COc1ccc([C@@H](c2ccccc2)C(C)(C)C(=O)Nc2nccs2)cc1Br [Example 286, (3R)-3-(3-bromo-4-(methyloxy)phenyl)-2,2-dimethyl-3-phenyl-N-1,3-thiazol-2-ylpropanamide] | 46.7 nM |
| COc1ccc([C@H](c2ccccc2)C(C)(C)C(=O)Nc2nncs2)cc1Br [Example 287, (3S)-3-(3-bromo-4-(methyloxy)phenyl)-2,2-dimethyl-3-phenyl-N-1,3,4-thiadiazol-2-ylpropanamide] | 14.7 nM |
| COc1ccc([C@@H](c2ccccc2)C(C)(C)C(=O)Nc2nccs2)cc1C#N [Example 296, (3R)-3-(3-Cyano-4-(methyloxy)phenyl)-2,2-dimethyl-3-phenyl-N-1,3-thiazol-2-ylpropanamide] | 45.7 nM |
| CC(C)(C(=O)Nc1nccs1)C(c1ccccc1)c1ccc(Cl)cc1 (stereo not shown) [Example 306, 3-(4-chlorophenyl)-2,2-dimethyl-3-phenyl-N-1,3-thiazol-2-ylpropanamide] | 26.3 nM |
| CC(C)(C(=O)Nc1nccs1)C(c1ccccc1)c1ccc(F)cc1 (stereo not shown) [Example 307, 3-(4-fluorophenyl)-2,2-dimethyl-3-phenyl-N-1,3-thiazol-2-ylpropanamide] | 15.5 nM |
| CC(C)(C(=O)Nc1nccs1)C(c1ccccc1)c1ccc(F)cc1 (stereo not shown) [Example 308, 3-(4-fluorophenyl)-2,2-dimethyl-3-phenyl-N-1,3-thiazol-2-ylpropanamide] | 35 nM |
| CC(C)(C(=O)Nc1nccs1)C(c1ccccc1)c1ccc(F)cc1 (stereo not shown) [Example 309, 3-(4-fluorophenyl)-2,2-dimethyl-3-phenyl-N-1,3-thiazol-2-ylpropanamide] | 76.4 nM |
| CC(C)(C(=O)Nc1nccs1)C(c1ccccc1)c1ccc(C#N)cc1 (stereo not shown) [Example 310, 3-(4-cyanophenyl)-2,2-dimethyl-3-phenyl-N-1,3-thiazol-2-ylpropanamide] | 26.6 nM |
| CC(C)(C(=O)Nc1nccs1)C(c1ccccc1)c1cccc(Br)c1 (stereo not shown) [Example 311, 3-(3-bromophenyl)-2,2-dimethyl-3-phenyl-N-1,3-thiazol-2-ylpropanamide] | 17.5 nM |
